In paper PMC4076294 (Journal of the American Chemical Society, 2014):
Values joined by “and” are separate entries in the source; they are usually repeats but may differ in a detail not shown here. Identical values can stand only once.

Legend:
[1] = comparison values; cited from earlier work
A2780 = experiment: MTT assay; type: cell-based, human; conditions: read-out: IC50 at 48 h; A2780, 48 h
[2] = tested on: A2780 ovarian cancer cells; experiment: LIVE/DEAD cell viability assay; type: cell-based, human; conditions: 10 μM, 48 h
[3] = tested on: nuclear DNA of A2780 cells; experiment: DNA platination experiment; type: cell-based, human; conditions: 5 μM, 5 h, then 16 h in fresh media

Compound | half-life in blood (t1/2) [1] | IC50 (A2780) [µM] | LIVE/DEAD cell assay outcome [2] | extent of DNA platination [3]
CC(=O)[O][Pt]([NH2])([Cl])([Cl])([NH]C1CCCCC1)[O]C(C)=O [satraplatin] | 6.3 min and ~6 min |  |  | 
N.N.[Cl][Pt][Cl] [cisplatin] |  | 6.35 ± 1.39 | mostly survived | 36.4 ± 5.5 Pt adducts/10^6 nucleotides
